Consider 17 molecules from patent US8546440B2, “Substituted bicyclic imidazole derivatives as gamma secretase modulators” (Janssen Pharmaceuticals, Inc., priority 2008, dated 2013).

Holding throughout (format): cell-based
Test [1] deals with Aβtotal. Kind of test: Screening for γ-secretase-modulating activity, Method 1: Aβtotal sandwich ELISA in supernatant of SKNBE2 cells carrying APP 695 wild type (Tables 12a, 12b). Conditions: Table 12b, Method 1, SKNBE2 cells carrying APP 695 wild type, cell supernatant ELISA, averaged IC50 values. In a few lines: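 SKNBE2 cells expressing wild-type APP 695 were plated a day ahead, then exposed to compound in Ultraculture with 1% glutamine for 18 hours. Supernatant Aβtotal captured on 6E10 overnight at 4° C, detected with biotinylated 4G8 and streptavidin-peroxidase with a fluorogenic substrate. IC50 from 4-parameter dose-response fits.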
Background: In an ELISA, binding on a coated surface is turned into a signal by an enzyme label.

For test [2], the system named is Aβ42. Description: Screening for γ-secretase-modulating activity, Method 2: Aβ42 Alphalisa in supernatant of SKNBE2 cells carrying APP 695 wild type (Table 12c). The conditions noted are these: Method 2, Table 12c, incubated overnight. The method, then: (§1) Screening was carried out using SKNBE2 cells carrying the APP 695—wild type, grown in Dulbecco's Modified Eagle's Medium/Nutrient mixture F-12 (DMEM/NUT-mix F-12) (HAM) provided by Invitrogen (cat no. 10371-029) containing 5% Serum/Fe supplemented with 1% non-essential amino acids, 1-glutamine 2 mM, Hepes 15 mM, penicillin 50 U/ml (units/ml) en streptomycin 50 μg/ml. Cells were grown to near confluency.
(§2) The screening was performed using a modification of the assay as described in Citron et al (1997) Nature Medicine 3: 67. Briefly, cells were plated in a 384-well plate at 10^4 cells/well in Ultraculture (Lonza, BE12-725F) supplemented with 1% glutamine (Invitrogen, 25030-024), 1% non-essential amino acid (NEAA), penicillin 50 U/ml en streptomycin 50 μg/ml in the presence of test compound at different test concentrations. The cell/compound mixture was incubated overnight at 37° C., 5% CO2, The next day the media were assayed by two sandwich immuno-assays, for Aβ42 and Aβtotal.
(§3) Aβtotal and Aβ42 concentrations were quantified in the cell supernatant using the Aphalisa technology (Perkin Elmer). Alphalisa is a sandwich assay using biotinylated antibody attached to streptavidin coated donorbeads and antibody conjugated to acceptor beads. In the presence of antigen, the beads come into close proximity. The excitation of the donor beads provokes the release of singlet oxygen molecules that trigger a cascade of energy transfer in the acceptor beads, resulting in light emission. To quantify the amount of Aβ42 in the cell supernatant, monoclonal antibody specific to the C-terminus of Aβ42 (JRF/cAβ42/26) was coupled to the receptor beads and biotinylated antibody specific to the N-terminus of Aβ (JRF/AβN/25) was used to react with the donor beads. To quantify the amount of Aβtotal in the cell supernatant, monoclonal antibody specific to the N-terminus of Aβ (JRF/AβN/25) was coupled to the receptor beads and biotinylated antibody specific to the mid region of Aβ (biotinylated 4G8) was used to react with the donor beads.
(§4) To obtain the values reported in Table 12c, the data are calculated as percentage of the maximum amount of amyloid Beta 42 measured in the absence of the test compound. The sigmoidal dose response curves were analyzed using non-linear regression analysis with percentage of the control plotted against the log concentration of the compound. A 4-parameter equation was used to determine the IC50.
For orientation: Bead proximity is the source of the signal in Alpha formats.

In test [3] the test system is Aβtotal. Description: Screening for γ-secretase-modulating activity, Method 2: Aβtotal Alphalisa in supernatant of SKNBE2 cells carrying APP 695 wild type (Table 12c). The conditions noted are these: Method 2, Table 12c, incubated overnight. The procedure:
as §1, §2, §3, §4

Test [4] concerns Aβ42. Kind of test: Screening for γ-secretase-modulating activity, Method 1: Aβ42 sandwich ELISA in supernatant of SKNBE2 cells carrying APP 695 wild type (Tables 12a, 12b). Conditions: Table 12b, Method 1, SKNBE2 cells carrying APP 695 wild type, cell supernatant ELISA, averaged IC50 values, percentage of control vs log concentration. In a few lines:
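SKNBE2 cells expressing wild-type APP695 were treated with compound for 18 h, and secreted Aβ42 in the medium was quantified by sandwich ELISA (C-terminal-selective capture, biotinylated 3D6 detection, TMB read at 450 nm). IC50 came from 4-parameter fits of % inhibition or % of untreated control; toxicity was checked by WST-1.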

Structures are written as SMILES. Where only a bound is given, the exact number is not on record here.

With `Cc1cn(-c2ccc(Nc3cccn4cc(C)nc34)cc2F)cn1` [Compound 119], the IC50 in test [1] (Homo sapiens) is more than 3020 nM; in test [2] (Homo sapiens), 603 nM; in test [3] (Homo sapiens), 6170 nM; in test [4] (Homo sapiens) it was 1660 nM.

Take `COc1cc(Nc2cc(C(F)(F)F)cn3cc(C(C)(C)O)nc23)ccc1-n1cnc(C)c1` [Compound 151]: the IC50 was more than 3020 nM in test [1], 219 nM in test [2], more than 10000 nM in test [3] and 513 nM in test [4].

For `Cc1cn(-c2ccc(Nc3cc(C(F)(F)F)nn4cc(C5CCOCC5)nc34)cc2F)cn1` [Compound 168], the IC50 was more than 3020 nM in test [1], 380 nM in test [2], 10000 nM in test [3] and 3020 nM in test [4].

In the case of `COc1nc(Nc2cccn3cc(C)nc23)ccc1-n1cnc(C)c1` [Compound 144], the IC50 was more than 3020 nM in test [1], 120 nM in test [2], more than 10000 nM in test [3] and 100 nM in test [4].

For `COc1cc(Nc2cccn3cc(CC(F)(F)F)nc23)ccc1-n1cnc(C)c1` [Compound 109], the IC50 in test [1] was more than 3020 nM; in test [2], 60 nM; in test [3] it was more than 10000 nM; in test [4], 15 nM.

With `Cc1cn(-c2ccc(Nc3cc(C(F)(F)F)nn4cc(C)nc34)cc2F)cn1` [Compound 173], the IC50 in test [1] is more than 3020 nM; in test [2], more than 10000 nM; in test [3], more than 10000 nM; in test [4], more than 3020 nM.

`Cc1cn(-c2ccc(Nc3cccn4cc(C5CC5)nc34)cc2F)cn1` [Compound 120]: the IC50 in test [1] (Homo sapiens) was more than 30200 nM; in test [2] (Homo sapiens), 363 nM; in test [3] (Homo sapiens) it was more than 10000 nM; in test [4] (Homo sapiens), 589 nM.

`CCOC(=O)c1cn2cccc(Nc3ccc(-n4cnc(C)c4)c(OC)c3)c2n1` [Compound 113]: the IC50 was more than 3020 nM in test [1], 145 nM in test [2], more than 10000 nM in test [3] and 38 nM in test [4].

In the case of `COCc1c(-c2ccccc2Cl)nc2c(Nc3ccc(-n4cnc(C)c4)c(F)c3)cccn12` [Compound 103], the IC50 in test [1] was more than 3020 nM; in test [2] it was 19 nM; in test [3] it was more than 10000 nM; in test [4], 13 nM.

`COc1cc(Nc2cccn3c(C)c(-c4ccccc4Cl)nc23)ccc1-n1cnc(C)n1` [Compound 124]: the IC50 is more than 3020 nM in test [1] (Homo sapiens), 18 nM in test [2] (Homo sapiens), 9120 nM in test [3] (Homo sapiens) and 11 nM in test [4] (Homo sapiens).

With `COCc1c(-c2ccc(F)cc2)nc2c(Nc3ccc(-n4cnc(C)n4)c(OC)c3)cccn12` [Compound 125], the 50% inhibitory concentration (IC50) was more than 3020 nM in test [1], 51 nM in test [2], 7940 nM in test [3] and 30 nM in test [4].

As for `COCCCc1c(-c2ccc(F)cc2)nc2c(Nc3ccc(-n4cnc(C)n4)c(OC)c3)cccn12` [Compound 129], the IC50 in test [1] is more than 10000 nM; in test [2] it was 74 nM; in test [3], more than 10000 nM; in test [4], 46 nM.

Turning to `COc1cc(Nc2cccn3cc(C4CCOCC4)nc23)ccc1-n1cnc(C)n1` [Compound 136], the IC50 in test [1] (Homo sapiens) was more than 30200 nM; in test [2] (Homo sapiens), 813 nM; in test [3] (Homo sapiens), more than 10000 nM; in test [4] (Homo sapiens) it was 676 nM.

On to `COc1ccccc1-c1cc(Nc2ccc(-n3cnc(C)c3)c(OC)c2)c2nc(C)cn2n1` [Compound 161], for which the values for the IC50 in test [2] and in test [3] were 132 nM and more than 10000 nM, respectively.

Turning to `COc1cc(Nc2cccn3c(CN(C)C)c(-c4ccccc4)nc23)ccc1-n1cnc(C)n1` [Compound 128], the results for the IC50 in test [2] and in test [3] were 62 nM and more than 10000 nM, respectively.

For `COc1nc(Nc2cccn3cc(CC(F)(F)F)nc23)ccc1-n1cnc(C)c1` [Compound 179], the half-inhibitory concentration (IC50) is 78 nM in test [2] (Homo sapiens) and more than 10000 nM in test [3] (Homo sapiens).

With `COCc1c(-c2ccccc2)nc2c(Nc3ccc(-n4cnc(C)c4)c(F)c3)cccn12` [Compound 104], the IC50 in test [2] turned out to be 29 nM; in test [3], 7240 nM.

Broadly, the IC50 is the concentration that inhibits the measured activity by half.
